# Laboratory results reported in patent US20110160146A1, “Conjungation of Small Molecules to Octaarginine Transporters for Overcoming Multi-Drug Resistance” (National Institute of Health (NIH), priority 2008, published 2011).
# Assays:
# [1] = system: OVCA 433T; experiment: cells; conditions: Homo sapiens, read-out: IC50 concentration
# Description: (§1) After 72 hours, the cytotoxicity of the relevant compound was determined by an MTT based assay.
# (§2) Within the panel of human cancer cells, there were three sets of related sensitive and resistant cell lines, the latter based wholly or in part on Pgp-mediated efflux. These resistant lines were either created through stable transfection of MCF-7 cells with Pgp (MCF-7-Pgp), or by selection through exposure of OVCA429 and OVCA433 cells to taxol (OVCA429T and OVCA433T)^19 or taxotere (OVCA429TxT and OVCA433TxT), creating a complex MDR phenotype including Pgp upregulation.
# (§3) Cell Lines; SKOV-3 cells were obtained from ATCC; UCI-101 and UCI-107 cell lines were obtained from Drs. P. DiSaia and A. Manetta, University of California; MCF-7 and MCF-7-Pgp were obtained from Dr. D. Piwnica-Worms, Washington University; OVCA429, OVCA433 and the taxane resistant derivatives of these cells (OVCA429T, OVCA429TxT, OVCA433T and OVCA433TxT) were obtained from Dr. B. Sikic, Stanford University. All cells were grown in DMEM with 10% FBS.
# (§4) Cell Cytotoxicity Assay. The cytotoxicity of relevant compounds was determined by IC50 assay. Cells were seeded overnight into 96-well plates, and then incubated with a serial dilution of the indicated compound for 20 min, before washing twice with fresh media, and incubation at 37° C. for 72 hr in drug-free media. The IC50 values were determined as the concentration of compound required to inhibit the viability of the cell layer by 50% relative to untreated, and cell-free control wells (100 and 0% viability respectively) determined from semi-logarithmic dose response curves. […] Bioluminescence was determined using an IVIS 50 system (Caliper Life Sciences, Alameda, Calif.). Each compound and dilution was tested in triplicate per experiment, with each experiment reproduced three times.
# [2] = system: OVCA 429T; experiment: cells; conditions: Homo sapiens, read-out: IC50 concentration
# Description: as §1, §2, §3, §4
# [3] = system: OVCA 429TxT; experiment: cells; conditions: Homo sapiens, read-out: IC50 concentration
# Description: as §1, §2, §3, §4
# [4] = system: OVCA 433TxT; experiment: cells; conditions: Homo sapiens, read-out: IC50 concentration
# Description: as §1, §2, §3, §4
# [5] = system: OVCA 433; experiment: cells; conditions: Homo sapiens, OVCA433, read-out: IC50 concentration
# Description: as §1, §3, §4
# [6] = system: SKOV-3; experiment: cells; conditions: Homo sapiens, SK-OV-3, read-out: IC50 concentration
# Description: as §1, §3, §4
# [7] = system: UCI-101 luc; experiment: cells; conditions: Homo sapiens, UCI101, read-out: IC50 concentration
# Description: as §1, §3, §4
# [8] = system: OVCA 429; experiment: cells; conditions: Homo sapiens, OVCA429, read-out: IC50 concentration
# Description: as §1, §3, §4
# [9] = system: MCF-7; experiment: cells; conditions: Homo sapiens, MCF7, read-out: IC50 concentration
# Description: as §1, §3, §4
# [10] = system: UCI-107 luc; experiment: cells; conditions: Homo sapiens, read-out: IC50 concentration
# Description: as §1, §3, §4
# [11] = system: MCF-7-pgp; experiment: Cell cytotoxicity assay (IC50), MCF-7-pgp; conditions: Homo sapiens, read-out: IC50 concentration
# Description: as §1, §2, §3, §4
# [12] = system: UCI-101 tumor cells expressing luciferase; experiment: Mouse tumor model, UCI-101 intraperitoneal xenograft; type: in vivo, mice; conditions: 10 mg/kg dose
# Description: (a) 1×10^7 UCI-101 tumor cells expressing luciferase were implanted into the peritoneal cavity of athymic nu/nu mice 7 days prior to treatment. […] For the purpose of these experiments TFA^− counteranions on both conjugates were exchanged to C. Subsequent tumor burden was followed by bioluminescence imaging (n=8/group). […] Tumor burden was followed by bioluminescence imaging. […] (n=8/group).
# Mouse Tumor Models: Tumor xenografts were created by intraperitoneal injection of female athymic CD1 nu/nu or SCID mice with 1×10^7 cells. Versions of UCI-101, OVCA429 or OVCA429T cells were used expressing Firefly luciferase. […] Mice were then treated with three intraperitoneal injections (5 days apart) of 5 or 10 mg/kg taxol or equimolar dose equivalents of the taxol derivatives, or PBS as a control. For the purpose of these experiments TFA^− counteranions on both conjugates were exchanged to C. Subsequent tumor burden was followed by BLI. Once tumor burden reached 1×10^8 photons/sec/mouse the mice were euthanized.
# Comparisons of survival (Kaplan-Meier) curves were made by the Wilcoxon-Rank test. Statistical significance was determined as p<0.05.
compound,measurement,setting,value
"CC(=O)O[C@H]1C(=O)[C@@]2(C)[C@H]([C@H](OC(=O)c3ccccc3)[C@]3(O)C[C@H](OC(=O)[C@H](O)[C@@H](NC(=O)c4ccccc4)c4ccccc4)C(C)=C1C3(C)C)[C@]1(OC(C)=O)CO[C@@H]1C[C@@H]2O [compound 1, Taxol, reference compound]",IC50,[1],6180 nM
same,IC50,[2],15800 nM
same,IC50,[3],2520 nM
same,IC50,[4],12400 nM
same,IC50,[5],294 nM
same,IC50,[6],29 nM
same,IC50,[7],246 nM
same,IC50,[8],147 nM
same,IC50,[9],171 nM
same,IC50,[10],320 nM
same,IC50,[11],867 nM
same,complete responses,[12],12.5%
